Source: PMC8143291, “Cytotoxicity and Microbicidal Activity of Commonly Used Organic Solvents: A Comparative Study and Application to a Standardized Extract from Vaccinium macrocarpon” (Toxics, 2021)

Columns and labels:
[1] = test system: Bacillus subtilis; conditions: cited from earlier work
[2] = test system: breast cancer, mouse macrophage and human umbilical vein endothelial cells; set-up: method as in doi:10.17795/ajmb-33453; conditions: cited from earlier work
[3] = test system: HaCaT (immortalized human keratinocytes); test: MTT dye-reduction cytotoxicity assay (ISO 10993-5); format: cell-based; conditions: solvent alone, 72 h, at least 70% of cells viable, n = 3
Source text: (§1) The cell lines utilized in this study included the human tumor lines A-375 (malignant melanoma) and A-431 (non-melanoma epidermoid squamous skin carcinoma) as well as the models for non-tumorigenic cells—HaCaT (immortalized human keratinocytes) and CCL-1^TM (transformed mouse fibroblasts, NCTC clone 929). The first three cell lines were obtained from CLS Cell Lines Service (GmbH, Eppelheim, Germany). CCL-1^TM was purchased from the American Type Culture Collection (ATCC, Manassas, VA, USA). Cells were maintained in a controlled environment—sterile cell culture flasks in a CO2 incubator Panasonic MCO-18AC (Panasonic Healthcare co., ltd, Oizumi-Machi, Japan) at 37 °C and a humidified atmosphere containing 5% CO2. CCL-1 was cultured in MEM with 10% heat-inactivated horse serum and 2 mM L-glutamine, and the cell culture medium for the rest of the cell lines was DMEM-HG with 4.5 g/L glucose with the addition of 10% heat-inactivated fetal bovine serum and 4 mM L-glutamine. Pen/strep (concentration of penicillin G sodium 10^5 Units/L and of streptomycin sulfate 100 mg/L) was added to both culture media. The cell lines were maintained as an adherent monolayer in a log phase. The cells were sub-cultivated about 1–3 times per week after the monolayer reached 80–90% confluence. The medium was removed from the flask, and the cell monolayer was washed with 3–5 mL PBS. The cells were incubated with 0.05% EDTA in PBS for 8–10 min, followed by the next step where all cell lines were subjected to enzyme cell detachment. HaCaT and CCL-1 monolayers were detached with 1 mL solution of trypsin/EDTA (0.1%/0.05% for HaCaT and 0.25% (w/v)/0.53 mM for CCL-1) and incubated for 2–5 min at 37 °C (for HaCaT) or at room temperature (for CCL-1 cells), whereas Accutase® was used for A-375 and A-431 lines. The incubation lasted until the separation and dispersion of the cells in the monolayer were observed using light microscopy. In the end, all cell lines were resuspended in 10 mL medium and centrifuged for 3 min at 300× g. The cell pellet was resuspended in fresh medium and sub-cultivated at a seeding density of 1.0 × 10^4 cells/cm^2.
(§2) The MTT test was performed in order to determine the median inhibitory (IC50) and MTC concentrations of the solvents and PAC according to Annex C, ISO 10993-5 [2, 21]. Briefly, 100 µL of the cell suspension (1 × 10^5 cells/mL) were seeded per well in 96-well plates with a flat bottom. The cells were incubated for 24 h, allowing them to enter the log phase of their growth. On the 24th hour, the cells were treated with the solvents or CystiCran® solutions in concentrations ranging between 0.004% and 2% volume fraction (v/v) and incubated further for 72 h. The incubation periods are following the recommendations of the FDA guide for the use of ISO 10993-1 [1]. At the end of the incubation period, 10 µL of an MTT solution (5 mg/mL) were added to each well, and the plates were kept at 37 °C for 2 hours. Thereafter, the medium was aspirated, and the formed formazan crystals were dissolved in 100 μL/well of 2-propanol supplemented with 5% formic acid. The same solvent was used as a blank. Untreated cells were considered as a negative control. […] The absorption was measured at 540 nm (reference filter at 690 nm) on a microplate reader ELx800 (BioTek Instruments, Inc., Winooski, VT, Winooski, VT, USA).
(§3) The IC50 values from the MTT assay were evaluated with a non-linear regression analysis (Curve fit, GraphPad Prizm 6.01 software, GraphPad Software Inc., San Diego, CA, USA) using sigmoidal concentration–response curves. The cell viability is presented as a percentage of the untreated control. At least four wells were seeded for every concentration. Three independent assays were performed (n = 3).

[4] = test system: CCL-1 (transformed mouse fibroblasts, NCTC clone 929); test: MTT dye-reduction cytotoxicity assay (ISO 10993-5); format: cell-based; conditions: solvent alone, 72 h, at least 70% of cells viable, n = 3
Source text: as §1, §2, §3

CN(C)C=O [DMF, N,N-dimethylformamide]
tolerated concentration [1]: ≥ 10 % v/v
maximum tolerated concentration (MTC) / applicable concentration [2]: 0.1 % v/v
MTC (maximum tolerated concentration) [3]: 0.03 % (v/v)
MTC (maximum tolerated concentration) [4]: 0.03 % (v/v)
